pIC50: −log10 of the molar value. Square brackets hold non-standard residues; d marks the D form. Peptide text beside a SMILES is read from it. * marks the point of attachment. OAll = C=CCO*

The target in one assay is T1, KDR receptor (VEGFR2) (Homo sapiens, UniProt P35968).
T1 construct: expressed in transfected cells; host or cells: heparan sulfate deficient Chinese hamster ovary cells (CHOm VEGFR2), VEGFR2 cDNA in psV-7d vector
T1 sequence (P35968 20-1356, species assumed): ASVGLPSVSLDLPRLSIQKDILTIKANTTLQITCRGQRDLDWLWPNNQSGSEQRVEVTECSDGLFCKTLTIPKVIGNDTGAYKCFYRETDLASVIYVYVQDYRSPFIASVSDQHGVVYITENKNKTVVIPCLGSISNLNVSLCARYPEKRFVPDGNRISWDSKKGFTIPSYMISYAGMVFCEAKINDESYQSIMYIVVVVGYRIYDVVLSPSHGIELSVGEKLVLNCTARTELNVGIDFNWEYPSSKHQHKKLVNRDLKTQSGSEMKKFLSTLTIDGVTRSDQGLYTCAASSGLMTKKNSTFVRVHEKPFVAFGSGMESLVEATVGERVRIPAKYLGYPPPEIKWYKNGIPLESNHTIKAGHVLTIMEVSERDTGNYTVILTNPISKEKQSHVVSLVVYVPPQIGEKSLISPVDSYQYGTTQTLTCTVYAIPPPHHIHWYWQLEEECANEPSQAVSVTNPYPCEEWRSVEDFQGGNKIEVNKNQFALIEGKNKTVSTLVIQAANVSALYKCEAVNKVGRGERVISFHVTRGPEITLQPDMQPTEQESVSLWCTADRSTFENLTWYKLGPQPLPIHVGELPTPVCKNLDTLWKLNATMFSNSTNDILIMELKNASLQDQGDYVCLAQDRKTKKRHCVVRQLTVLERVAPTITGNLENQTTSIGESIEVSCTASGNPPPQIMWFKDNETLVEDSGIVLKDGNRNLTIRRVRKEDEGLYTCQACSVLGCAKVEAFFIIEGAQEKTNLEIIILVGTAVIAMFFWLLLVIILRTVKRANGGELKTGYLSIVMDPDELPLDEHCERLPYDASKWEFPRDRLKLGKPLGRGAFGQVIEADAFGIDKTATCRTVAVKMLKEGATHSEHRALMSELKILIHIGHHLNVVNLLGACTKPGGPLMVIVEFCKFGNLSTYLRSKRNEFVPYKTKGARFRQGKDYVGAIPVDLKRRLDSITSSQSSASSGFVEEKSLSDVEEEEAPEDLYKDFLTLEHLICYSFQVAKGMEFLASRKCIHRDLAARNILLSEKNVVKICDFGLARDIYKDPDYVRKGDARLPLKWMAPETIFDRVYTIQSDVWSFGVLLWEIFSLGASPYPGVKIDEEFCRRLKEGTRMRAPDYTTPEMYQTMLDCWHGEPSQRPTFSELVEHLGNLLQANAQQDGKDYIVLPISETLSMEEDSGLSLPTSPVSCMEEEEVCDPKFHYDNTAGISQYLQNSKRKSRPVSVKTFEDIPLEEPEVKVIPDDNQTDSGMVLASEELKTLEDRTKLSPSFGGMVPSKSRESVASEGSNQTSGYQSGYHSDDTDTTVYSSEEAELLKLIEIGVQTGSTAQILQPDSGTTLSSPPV
The experiment in a line: Inhibition of 125I-VEGF binding to KDR receptor on CHOm VEGFR2 cells.
Settings: not given
As to the method: The P1 to P24 peptides are tested as concerns their property of inhibition of the binding of VEGF to its KDR receptor.
For these tests, heparin sulfate deficient Chinese hamster ovarian cells that are transfected with an expression vector containing VEGFR2cDnA (CHOm VEGFR2 cells) are used.
The CHOm VEGFR2 cells are routinely cultured in Dulbecco modified Eagle medium and supplemented with 10% (v/v) fetal calf serum (FCS), 50 U/ml penicillin, 50 μg/ml streptomycin, 1 mg/ml glucose and 2 mM L-glutamine at 37° C. in a 5% CO2 atmosphere.
The subconfluent flasks are transferred at 4° C. […] At the end of the incubation period, the cells are washed 3 times using iced PBS and solubized in 1 mL of buffer with 2% Triton X 100, 10% glycol, 1 mg/mL bovine serum albumin BSA. The radioactivity rate bound to the cells is counted in an MR-250 Kontron gamma counter. […] Specific binding is calculated by subtracting non-specific binding from total binding.
These assays are continued using the cyclopeptides of interest and two linear peptides as controls for an inhibition analysis as a function of dose.
Take `CC[C@H](C)[C@H](NC(=O)[C@H](CCCNC(=N)N)NC(=O)CN)C(=O)N[C@@H](CCCCN)C(=O)N1CCC[C@@H]1C(=O)N[C@@H](Cc1c[nH]cn1)C(=O)N[C@@H](CCC(N)=O)C(=O)NCC(=O)N[C@@H](CCC(N)=O)C(=O)N[C@@H](Cc1c[nH]cn1)C(=O)O` [Peptide P6, H-Gly-Arg-Ile-Lys-DPro-His-Gln-Gly-Gln-His-OH] (H-GRIK[dP]HQGQH-OH): the pIC50 was below 3.52.

As to `CC[C@H](C)[C@@H]1NC(=O)[C@H](CCCNC(=N)N)NC(=O)CNC(=O)[C@H](Cc2c[nH]cn2)NC(=O)[C@H](CCC(N)=O)NC(=O)CNC(=O)[C@H](CCC(N)=O)NC(=O)[C@H](Cc2c[nH]cn2)NC(=O)[C@H]2CCCN2C(=O)[C@H](CCCCN)NC1=O` [Peptide P7, cyclo(Gly-Arg-Ile-Lys-DPro-His-Gln-Gly-Gln-His)] (cyclo(GQHGRIK[dP]HQ)), the pIC50 is below 3.52.

In the case of `CC[C@H](C)[C@@H]1NC(=O)[C@H](CCCNC(=N)N)NC(=O)[C@@H]2CCCN2C(=O)[C@H](Cc2c[nH]cn2)NC(=O)[C@H](CCC(N)=O)NC(=O)CNC(=O)[C@H](CCC(N)=O)NC(=O)[C@H](Cc2c[nH]cn2)NC(=O)[C@@H]2CCCN2C(=O)[C@H](CCCCN)NC1=O` [Peptide P9] (cyclo(GQHPRIKPHQ)), the pIC50 is 3.52.

`C=CCOC(=O)[C@H](CCC(=O)O)NC(=O)CNC(=O)[C@@H](NC(=O)[C@H](Cc1c[nH]cn1)NC(=O)[C@H](CCC(N)=O)NC(=O)CNC(=O)[C@H](CCC(N)=O)NC(=O)[C@H](Cc1c[nH]cn1)NC(=O)[C@@H]1CCCN1C(=O)[C@H](CCCCN)NC(=O)[C@@H](NC(=O)[C@H](CCCNC(=N)N)NC(=O)[C@H](CCSC)NC(=O)[C@@H](NC(=O)[C@@H](N)CCC(N)=O)[C@@H](C)CC)[C@@H](C)CC)[C@@H](C)CC` [Peptide P10] (H-QIMRIKPHQGQHIGE-OAll): the pIC50 was below 3.52.

Consider `CC[C@H](C)[C@@H]1NC(=O)[C@H](Cc2c[nH]cn2)NC(=O)[C@H](CCC(N)=O)NC(=O)CNC(=O)[C@H](CCC(N)=O)NC(=O)[C@H](Cc2c[nH]cn2)NC(=O)[C@@H]2CCCN2C(=O)[C@H](CCCCN)NC(=O)[C@H]([C@@H](C)CC)NC(=O)[C@H](CCCNC(=N)N)NC(=O)[C@H](CCSC)NC(=O)[C@H]([C@@H](C)CC)NC(=O)[C@H](CCC(N)=O)NC(=O)CNC(=O)[C@H](CCC(=O)O)NC(=O)CNC1=O` [Peptide P12] (cyclo(EGQIMRIKPHQGQHIG)), for which the negative logarithm of the IC50 (pIC50) is 3.52.

In turn, `CC[C@H](C)[C@@H]1NC(=O)[C@H](Cc2c[nH]cn2)NC(=O)[C@H](CCC(N)=O)NC(=O)CNC(=O)[C@H](CCC(N)=O)NC(=O)[C@H](Cc2c[nH]cn2)NC(=O)[C@@H]2CCCN2C(=O)[C@H](CCCCN)NC(=O)[C@H]([C@@H](C)CC)NC(=O)[C@H](CCCNC(=N)N)NC(=O)[C@H](CCSC)NC(=O)[C@H]([C@@H](C)CC)NC(=O)[C@H](CCC(N)=O)NC(=O)[C@@H]2CCCN2C(=O)[C@H](CCC(=O)O)NC(=O)CNC1=O` [Peptide P13] (cyclo(EPQIMRIKPHQGQHIG)) showed a pIC50 below 3.52.

`CC[C@H](C)[C@@H]1NC(=O)[C@H](CCCNC(=N)N)NC(=O)[C@@H]2CCCN2C(=O)CNC(=O)[C@H](CCC(N)=O)NC(=O)[C@H](Cc2c[nH]cn2)NC(=O)[C@@H]2CCCN2C(=O)[C@H](CCCCN)NC1=O` [Peptide P17] (cyclo(PRIKPHQG)) had a pIC50 of 5.00.

`CC[C@H](C)[C@@H]1NC(=O)[C@H](Cc2c[nH]cn2)NC(=O)[C@H](CCC(N)=O)NC(=O)CNC(=O)[C@H](CCC(N)=O)NC(=O)[C@H](Cc2c[nH]cn2)NC(=O)[C@@H]2CCCN2C(=O)[C@H](CCCCN)NC(=O)[C@H]([C@@H](C)CC)NC(=O)[C@H](CCCNC(=N)N)NC(=O)[C@H](CCSC)NC(=O)[C@H]([C@@H](C)CC)NC(=O)[C@H](CCC(N)=O)NC(=O)[C@@H]2CCCN2C(=O)[C@@H](Cc2ccccc2)NC(=O)CNC1=O` [Peptide P20] (cyclo([dF]PQIMRIKPHQGQHIG)): the pIC50 is 5.00.

On to `CC[C@H](C)[C@@H]1NC(=O)[C@H](CCCNC(=N)N)NC(=O)[C@H](CCSC)NC(=O)[C@H]([C@@H](C)CC)NC(=O)[C@@H]2CCCN2C(=O)[C@@H](Cc2ccccc2)NC(=O)[C@H]([C@@H](C)CC)NC(=O)[C@H](Cc2c[nH]cn2)NC(=O)[C@H](CCC(N)=O)NC(=O)CNC(=O)[C@H](CCC(N)=O)NC(=O)[C@H](Cc2c[nH]cn2)NC(=O)[C@@H]2CCCN2C(=O)[C@H](CCCCN)NC1=O` [Peptide P21] (cyclo(GQHI[dF]PIMRIKPHQ)), for which the negative logarithm of the IC50 (pIC50) was 3.70.

`CC[C@H](C)[C@@H]1NC(=O)[C@H](CCC(N)=O)NC(=O)[C@H](CCC(=O)O)NC(=O)[C@H](CCC(N)=O)NC(=O)[C@H](Cc2c[nH]cn2)NC(=O)[C@@H]2CCCN2C(=O)[C@H](CCCCN)NC(=O)[C@H]([C@@H](C)CC)NC(=O)[C@H](CCCNC(=N)N)NC(=O)[C@H](CCSC)NC1=O` [Peptide P22, reference compound] (cyclo(EQIMRIKPHQ)) had a pIC50 below 3.52.

With H-GQIMRIKPHQGQHIGE-OH [Peptide P15], the pIC50 is below 3.52.

H-PQIMRIKPHQGQHIGE-OH [Peptide P14] had a pIC50 below 3.52.

H-QIMRIKPH-OH [Peptide P2] gave a pIC50 below 3.52.

H-QIMRIKPHQGQHIG-OH [Peptide P5] showed a pIC50 below 3.52.

Regarding H-QIMRIKPHQGQHIGE-OH [Peptide P4], the pIC50 was below 3.52.

Compound “H-RIKPHQG-OH [Peptide P3, H-Arg-Ile-Lys-Pro-His-Gln-Gly-OH]” showed a pIC50 below 3.52.

Still in this assay, the particulars now being: CHOm VEGFR2 cells, 5 ng/mL 125I-VEGF, 2 hours at 4° C.
For the compound `CC[C@H](C)[C@@H]1NC(=O)[C@H](CCCNC(=N)N)NC(=O)CNC(=O)[C@H](Cc2c[nH]cn2)NC(=O)CNC(=O)[C@H](CCC(N)=O)NC(=O)[C@H](Cc2c[nH]cn2)NC(=O)[C@@H]2CCCN2C(=O)[C@H](CCCCN)NC1=O` [Peptide P8] (cyclo(GRIKPHQGH)), the pIC50 was 3.70.

Regarding `CC[C@H](C)[C@@H]1NC(=O)[C@H](CCCNC(=N)N)NC(=O)CNC(=O)[C@H](Cc2c[nH]cn2)NC(=O)[C@@H]2CCCN2C(=O)[C@H](CCCCN)NC1=O` [Peptide P24, cyclo(Gly-Arg-Ile-Lys-Pro-His)] (cyclo(GRIKPH)), the pIC50 was 5.10.

Regarding “H-RIKPH-OH [Peptide P1, H-Arg-Ile-Lys-Pro-His-OH]”, the negative-log IC50 (pIC50) is below 3.52.

Still in this assay, the particulars now being: CHOm VEGFR2 cells, 125I-VEGF.
On to `CC[C@H](C)[C@@H]1NC(=O)[C@H](CCCNC(=N)N)NC(=O)CNC(=O)[C@H](CCC(N)=O)NC(=O)[C@H](Cc2c[nH]cn2)NC(=O)[C@@H]2CCCN2C(=O)[C@H](CCCCN)NC1=O` [Peptide P16, cyclo(Arg-Ile-Lys-Pro-His-Gln-Gly)] (cyclo(RIKPHQG)), for which the “inhibiting binding of VEGF to the KDR receptor (in words)” value (“inhibiting binding of VEGF” for short) is “very effective”.

In the case of `CC[C@H](C)[C@@H]1NC(=O)[C@H](CCCNC(=N)N)NC(=O)[C@@H]2CCCN2C(=O)CNC(=O)[C@H](CCC(N)=O)NC(=O)[C@H](Cc2c[nH]cn2)NC(=O)[C@@H]2CCCN2C(=O)[C@H](CCCCN)NC1=O` [Peptide P17] (cyclo(PRIKPHQG)), the “inhibiting binding of VEGF” value is reported as “very effective”.

For the compound `CC[C@H](C)[C@@H]1NC(=O)[C@H](Cc2c[nH]cn2)NC(=O)[C@H](CCC(N)=O)NC(=O)CNC(=O)[C@H](CCC(N)=O)NC(=O)[C@H](Cc2c[nH]cn2)NC(=O)[C@@H]2CCCN2C(=O)[C@H](CCCCN)NC(=O)[C@H]([C@@H](C)CC)NC(=O)[C@H](CCCNC(=N)N)NC(=O)[C@H](CCSC)NC(=O)[C@H]([C@@H](C)CC)NC(=O)[C@H](CCC(N)=O)NC(=O)[C@H](CCC(=O)O)NC(=O)CNC1=O` [Peptide P19] (cyclo(QIMRIKPHQGQHIGE)), the “inhibiting binding of VEGF” value was “very effective”.

Regarding `CC[C@H](C)[C@@H]1NC(=O)[C@H](Cc2c[nH]cn2)NC(=O)[C@H](CCC(N)=O)NC(=O)CNC(=O)[C@H](CCC(N)=O)NC(=O)[C@H](Cc2c[nH]cn2)NC(=O)[C@@H]2CCCN2C(=O)[C@H](CCCCN)NC(=O)[C@H]([C@@H](C)CC)NC(=O)[C@H](CCCNC(=N)N)NC(=O)[C@H](CCSC)NC(=O)[C@H]([C@@H](C)CC)NC(=O)[C@H](CCC(N)=O)NC(=O)[C@@H]2CCCN2C(=O)[C@@H](Cc2ccccc2)NC(=O)CNC1=O` [Peptide P20] (cyclo([dF]PQIMRIKPHQGQHIG)), the “inhibiting binding of VEGF” value is reported as “very effective”.

For the compound `CC[C@H](C)[C@@H]1NC(=O)[C@H](CCCNC(=N)N)NC(=O)[C@@H]2CCCN2C(=O)[C@@H](Cc2ccc(O)cc2)NC(=O)[C@H](CCC(N)=O)NC(=O)[C@H](Cc2c[nH]cn2)NC(=O)[C@@H]2CCCN2C(=O)[C@H](CCCCN)NC1=O` [Peptide P23] (cyclo([dY]PRIKPHQ)), the “inhibiting binding of VEGF” value is listed as “very effective”.

Take `CC[C@H](C)[C@@H]1NC(=O)[C@H](CCCNC(=N)N)NC(=O)CNC(=O)[C@H](Cc2c[nH]cn2)NC(=O)[C@@H]2CCCN2C(=O)[C@H](CCCCN)NC1=O` [Peptide P24, cyclo(Gly-Arg-Ile-Lys-Pro-His)] (cyclo(GRIKPH)): the “inhibiting binding of VEGF” value is recorded as “very effective”.

The values are drawn from patent US7199100B2, “Cyclic peptides, method for preparing and use as angiogenesis inhibitors or activator” (Commissariat a l'Energie Atomique, priority 2000, dated 2007).
